The source of these data is US11459375B2, “Cyclic peptides for the treatment of Graves' disease” (advanceCOR GmbH, priority 2017, dated 2022).

Series [1] concerns immunologically naïve mice. The note with it: mouse, in vivo, iv, 1 mg/kg.
Description: BALB/c mice were adapted for at least one week to start experiments at the age of 12 weeks. Animals were kept as described before. […] Peptides (either 1 mg/kg body weight or NaCl vehicle control) were given by IV injection into a tail vein of these naïve mice (n=5 per group), and then continued at 4-weekly intervals for 6 months, as described before for the therapeutic study in immunized mice. Serum samples were taken at identical intervals.
1) “3rd generation assay”: Antibodies against TSHR were detected by a commercially available 3rd generation enzyme immunoassay provided by RSR Limited, Avenue Park, Pentwyn, Cardiff, U.K., in which the of the human Graves patient-derived M22 monoclonal antibody and serum antibodies compete for binding sites on immobilized TSHR. […] The assay was performed using 30 μl 1:10 (PBS) diluted serum in at least double determination according to the manufacturer's instructions.
In series [2] the test system is Ad-TSHR-immunized mice. The series is described as follows: qualitative histological investigation of the thyroid. It is filed as in vivo, BALB/c mice. As to conditions: 9x AdTSHR-treated mice, 1 mg/kg IV 4-weekly. On the procedure:
After euthanasia, dissection of the thyroid glands was performed under a stereomicroscope, as described before (22). Briefly, cross cuts at the level above the larynx and below the seventh cartilage ring were made and the glands with the tracheae and oesophagi were removed from the necks. Tissue blocks were kept in 4% neutral para-formaldehyde (PFA), washed in PBS 3 times and embedded in optimum cutting temperature (OCT) formulation (Tissue-Tek® O.C.T.™ compound, VWR Chemicals, Leuven, Belgium). Consecutive 5 μm-thick cross sections were cut at a fixed distance of 500 μm using a Leica microtome CM 1850 Cryostat (temperature at −19° C.) and mounted on Thermo Polysine slides (Thermo Scientific, Cat J2800AMNZ). The collected sections represented a total distance of ˜5-6 mm, and covered the whole thyroid region of each animal. The tissue sections were then stained with hematoxylin-eosin (HE) and examined using bright field illumination on a Zeiss upright microscope. Thyroid volumes (mm^3) were calculated from the sum of the areas of each section over the whole cutting region. Myocardial volumes (mm^3) were calculated in a similar way as described for thyroid glands from the sum of the areas of each section over whole cutting region (5 to 6 slides, depending on respective size of the hearts). The method has been described before (22). […]

Series [3] relates to Ad-TSHR-immunized mice. Description: clinical signs of allergic reaction during therapy of immunized mice. The format is in vivo, BALB/c mice. The note with it: 1 mg/kg IV, had to be treated with clemastin. As to the method:
The study protocol used three 3-weekly immunizations (“initiation”) and followed by a “maintenance” phase with further regular 4-weekly boosts until the 9th immunisation, as described before (22). Mice were randomly assigned to therapeutic groups. Therapy (either 1 mg/kg body weight peptides or 0.9% NaCl vehicle control) was given 1 week after the 4th immunization by IV injection into a tail vein, and then continued at 4-weekly intervals, as described before for the treatment of anti-β1AR (16). The fusion protein TSHR-Fc was given IV at identical times at doses of 1 mg/kg, but had to be applied together with the histamine receptor blocker clemastin (Tavegil®) at a dose of 0.02 mg per mouse (25 g body weight) to avoid clinical symptoms of allergic reaction, which had been observed in initial pilot studies of TSHR-Fc administration in mice.

Peptide text beside a SMILES is read from it.

`CC[C@H](C)[C@@H]1NC(=O)[C@H](C(C)C)NC(=O)[C@H]([C@@H](C)O)NC(=O)[C@H](CC(C)C)NC(=O)[C@H](Cc2ccc(O)cc2)NC(=O)[C@H](CCCCN)NC(=O)[C@H](CC(N)=O)NC(=O)[C@H](CCCCN)NC(=O)[C@H](CC(N)=O)NC(=O)[C@H](CC(C)C)NC(=O)[C@H](Cc2ccc(O)cc2)NC(=O)[C@H](C(C)C)NC(=O)[C@H](C)NC(=O)[C@H](CC(=O)O)NC(=O)[C@H](CC(C)C)NC(=O)[C@H](CCCCN)NC(=O)[C@H]([C@@H](C)O)NC(=O)CNC(=O)[C@H](CC(N)=O)NC(=O)[C@H](Cc2ccccc2)NC(=O)[C@H](C)NC(=O)[C@H](Cc2ccc(O)cc2)NC(=O)CNC(=O)[C@H](CC(=O)O)NC1=O` [peptide 836] (cyclo(GYAFNGTKLDAVYLNKNKYLTVID)): in series [1], the “anti-TSHR antibody titers in naive mice” value was “below background” and the “generation of anti-TSHR antibodies” value is “not observed in any of the 6 animals”.
For the compound “TSHR-Fc: fusion protein: first 289 amino acids of human TSH receptor (A-subunit), GGR linker and Fc portion of human IgG2”, the “mean histological scores of the thyroid” value in the series on Ad-TSHR-immunized mice [2] is on record as “markedly better compared to the vehicle-treated group”. Also, in the series on Ad-TSHR-immunized mice [3], the “clinical signs of allergic reactions” value is “clinical signs of allergic reactions”.
